Reference: the supplement of paper PMC10307832

Assays:
Experiment in all cases: relative viability (nuclei count vs DMSO), 5 days (fraction); higher = more cells survive
Ruboxistaurin + OSI-027 = compound: CN(C)C[C@@H]1CCn2cc(c3ccccc32)C2=C(C(=O)NC2=O)c2cn(c3ccccc23)CCO1 [Ruboxistaurin] + COc1cccc2cc(-c3nc([C@H]4CC[C@H](C(=O)O)CC4)n4ncnc(N)c34)[nH]c12 [OSI-027] (partner 0.5 µM)
In short: (§1)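 Each reported value is a median over duplicate plates. It expresses relative viability: treated-well nuclei count divided by vehicle-well nuclei count. Lung cancer cell lines in 1536-well plates were dosed by pin tool a day after seeding, alone with one drug or with a fixed anchor-drug dose plus five library-drug doses (not always all listed) in √10 steps, and nuclei were counted after 5 days.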

Ruboxistaurin + Olaparib = compound: CN(C)C[C@@H]1CCn2cc(c3ccccc32)C2=C(C(=O)NC2=O)c2cn(c3ccccc23)CCO1 [Ruboxistaurin] + O=C(c1cc(Cc2n[nH]c(=O)c3ccccc23)ccc1F)N1CCN(C(=O)C2CC2)CC1 [Olaparib] (partner 8 µM)
In short: as §1

[1] = compound: CN(C)C[C@@H]1CCn2cc(c3ccccc32)C2=C(C(=O)NC2=O)c2cn(c3ccccc23)CCO1 [Ruboxistaurin] + CC(=O)Nc1cccc(-n2c(=O)n(C3CC3)c(=O)c3c(Nc4ccc(I)cc4F)n(C)c(=O)c(C)c32)c1 [Trametinib] (partner 0.02 µM)
In short: as §1

[2] = compound: CN(C)C[C@@H]1CCn2cc(c3ccccc32)C2=C(C(=O)NC2=O)c2cn(c3ccccc23)CCO1 [Ruboxistaurin] + Cc1cc(Nc2cc(N3CCN(C)CC3)nc(Sc3ccc(NC(=O)C4CC4)cc3)n2)n[nH]1 [Tozasertib] (partner 0.1 µM)
In short: as §1

[3] = compound: CN(C)C[C@@H]1CCn2cc(c3ccccc32)C2=C(C(=O)NC2=O)c2cn(c3ccccc23)CCO1 [Ruboxistaurin] + CC1(C)CCC(c2ccc(Cl)cc2)=C(CN2CCN(c3ccc(C(=O)NS(=O)(=O)c4ccc(N[C@H](CCN5CCOCC5)CSc5ccccc5)c(S(=O)(=O)C(F)(F)F)c4)cc3)CC2)C1 [Navitoclax] (partner 0.5 µM)
In short: as §1

Row | Cell Line | relative viability (Ruboxistaurin + OSI-027; first compound 0.08 µM) | relative viability (Ruboxistaurin + OSI-027; first compound 0.8 µM) | relative viability (Ruboxistaurin + OSI-027; first compound 2.53 µM) | relative viability (Ruboxistaurin + OSI-027; first compound 8 µM) | relative viability (Ruboxistaurin + Olaparib; first compound 0.08 µM) | relative viability (Ruboxistaurin + Olaparib; first compound 0.8 µM) | relative viability (Ruboxistaurin + Olaparib; first compound 2.53 µM) | relative viability (Ruboxistaurin + Olaparib; first compound 8 µM) | relative viability ([1]; first compound 0.08 µM) | relative viability ([1]; first compound 0.8 µM) | relative viability ([1]; first compound 2.53 µM) | relative viability ([1]; first compound 8 µM) | relative viability ([2]; first compound 0.08 µM) | relative viability ([2]; first compound 0.8 µM) | relative viability ([2]; first compound 2.53 µM) | relative viability ([2]; first compound 8 µM) | relative viability ([3]; first compound 0.08 µM) | relative viability ([3]; first compound 0.8 µM) | relative viability ([3]; first compound 2.53 µM) | relative viability ([3]; first compound 8 µM)
1 | NCI-H2347 | 0.483 | 0.429 | 0.354 | 0.356 | 0.636 | 0.614 | 0.581 | 0.451 | 0.306 | 0.293 | 0.256 | 0.167 | 0.557 | 0.468 | 0.614 | 0.415 | 0.871 | 0.707 | 0.749 | 0.786
2 | NCI-H2405 | 0.652 | 0.592 | 0.633 | 0.56 | 0.918 | 0.774 | 0.878 | 0.874 | 0.727 | 0.597 | 0.727 | 0.616 | 0.764 | 0.613 | 0.726 | 0.722 | 1.09 | 0.654 | 0.917 | 0.963
3 | NCI-H3122 | 0.921 | 0.811 | 0.886 | 0.582 | 0.743 | 0.581 | 0.559 | 0.572 | 0.241 | 0.179 | 0.227 | 0.232 | 0.426 | 0.43 | 0.426 | 0.334 | 1.02 | 0.919 | 1 | 1.09
4 | PC-3 [JPC-3] | 0.922 | 0.701 | 0.72 | 0.622 | 1.24 | 1.09 | 1.08 | 1.17 | 0.821 | 0.653 | 0.715 | 0.685 | 0.91 | 0.852 | 0.852 | 0.841 | 0.89 | 0.757 | 0.813 | 0.829
5 | PC-14 | 1.12 | 0.721 | 0.811 | 0.452 | 0.246 | 0.302 | 0.364 | 0.256 | 1.05 | 0.667 | 0.73 | 0.527 | 0.596 | 0.518 | 0.546 | 0.532 | 1.03 | 0.988 | 1.02 | 1.08
6 | RERF-LC-KJ | 0.627 | 0.497 | 0.461 | 0.415 | 0.938 | 0.804 | 0.942 | 0.709 | 0.932 | 0.867 | 0.836 | 0.857 | 0.515 | 0.401 | 0.49 | 0.462 | 1.36 | 0.977 | 0.881 | 0.833
7 | SK-LU-1 | 0.386 | 0.322 | 0.307 | 0.264 | 0.483 | 0.397 | 0.536 | 0.469 | 0.575 | 0.418 | 0.717 | 0.422 | 0.414 | 0.33 | 0.323 | 0.265 | 0.843 | 0.857 | 0.949 | 0.829
8 | SK-MES-1 | 0.676 | 0.554 | 0.525 | 0.327 | 0.726 | 0.555 | 0.905 | 0.465 | 0.629 | 0.508 | 0.492 | 0.442 | 0.948 | 0.808 | 0.887 | 0.789 | 1.35 | 1.15 | 1.4 | 1.09
9 | SW 1573 | 0.729 | 0.459 | 0.541 | 0.494 | 0.494 | 0.369 | 0.595 | 0.482 | 0.527 | 0.491 | 0.549 | 0.516 | 0.256 | 0.19 | 0.168 | 0.124 | 0.978 | 0.791 | 1.01 | 0.854
10 | UMC-11 | 0.437 | 0.403 | 0.37 | 0.301 | 0.554 | 0.364 | 0.361 | 0.289 | 0.766 | 0.623 | 0.649 | 0.577 | 0.203 | 0.211 | 0.248 | 0.177 | 0.312 | 0.28 | 0.294 | 0.248
